Measurements as given in ChEMBL document CHEMBL1137594, “Discovery of non-covalent dipeptidyl peptidase IV inhibitors which induce a conformational change in the active site” (Bioorg Med Chem Lett, 2007).

Biological target: Dipeptidyl peptidase 4 (Rattus norvegicus, UniProt P14740)
Conditions: po, read-out: Reduction
Description: Ex vivo DDP-IV inhibition after a 30 mpk oral administration to healthy rats compared to vehicle in an oral glucose tolerance test (OGTT)

Dipeptidyl peptidase 4, sequence (P14740 whole entry): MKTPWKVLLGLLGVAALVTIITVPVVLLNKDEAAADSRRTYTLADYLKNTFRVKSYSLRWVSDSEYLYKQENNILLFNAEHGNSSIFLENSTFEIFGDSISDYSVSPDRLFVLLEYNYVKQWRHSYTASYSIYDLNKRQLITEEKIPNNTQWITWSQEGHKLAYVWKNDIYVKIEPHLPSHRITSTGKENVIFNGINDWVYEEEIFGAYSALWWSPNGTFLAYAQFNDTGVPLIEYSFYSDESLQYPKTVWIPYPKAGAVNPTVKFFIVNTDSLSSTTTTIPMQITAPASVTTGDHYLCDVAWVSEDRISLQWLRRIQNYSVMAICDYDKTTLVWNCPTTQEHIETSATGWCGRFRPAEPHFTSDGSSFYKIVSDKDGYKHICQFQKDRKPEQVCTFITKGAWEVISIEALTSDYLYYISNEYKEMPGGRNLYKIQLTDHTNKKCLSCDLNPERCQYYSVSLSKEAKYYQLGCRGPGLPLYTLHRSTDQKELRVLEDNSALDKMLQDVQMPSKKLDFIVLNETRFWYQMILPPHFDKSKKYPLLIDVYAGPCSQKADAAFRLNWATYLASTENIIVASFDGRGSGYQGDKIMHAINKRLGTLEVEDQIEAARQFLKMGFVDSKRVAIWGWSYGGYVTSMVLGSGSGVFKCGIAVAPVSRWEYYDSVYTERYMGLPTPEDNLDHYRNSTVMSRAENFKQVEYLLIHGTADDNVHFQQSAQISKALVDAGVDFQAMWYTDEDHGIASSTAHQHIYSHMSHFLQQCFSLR

## NC(=O)c1ccc(OCC2(NCC(=O)c3ccsc3)CCCC2)cc1
  inhibition at 30 mg/kg: 24%
